{"source": "patent US10683279B2", "about": "“Apoptosis signal-regulating kinase 1 inhibitors and methods of use thereof” (Enanta Pharmaceuticals, Inc., priority 2017, dated 2020)", "data": [{"biological_target": "ASK1 (Homo sapiens (Human), UniProt Q99683)", "sequence (Q99683 whole entry)": "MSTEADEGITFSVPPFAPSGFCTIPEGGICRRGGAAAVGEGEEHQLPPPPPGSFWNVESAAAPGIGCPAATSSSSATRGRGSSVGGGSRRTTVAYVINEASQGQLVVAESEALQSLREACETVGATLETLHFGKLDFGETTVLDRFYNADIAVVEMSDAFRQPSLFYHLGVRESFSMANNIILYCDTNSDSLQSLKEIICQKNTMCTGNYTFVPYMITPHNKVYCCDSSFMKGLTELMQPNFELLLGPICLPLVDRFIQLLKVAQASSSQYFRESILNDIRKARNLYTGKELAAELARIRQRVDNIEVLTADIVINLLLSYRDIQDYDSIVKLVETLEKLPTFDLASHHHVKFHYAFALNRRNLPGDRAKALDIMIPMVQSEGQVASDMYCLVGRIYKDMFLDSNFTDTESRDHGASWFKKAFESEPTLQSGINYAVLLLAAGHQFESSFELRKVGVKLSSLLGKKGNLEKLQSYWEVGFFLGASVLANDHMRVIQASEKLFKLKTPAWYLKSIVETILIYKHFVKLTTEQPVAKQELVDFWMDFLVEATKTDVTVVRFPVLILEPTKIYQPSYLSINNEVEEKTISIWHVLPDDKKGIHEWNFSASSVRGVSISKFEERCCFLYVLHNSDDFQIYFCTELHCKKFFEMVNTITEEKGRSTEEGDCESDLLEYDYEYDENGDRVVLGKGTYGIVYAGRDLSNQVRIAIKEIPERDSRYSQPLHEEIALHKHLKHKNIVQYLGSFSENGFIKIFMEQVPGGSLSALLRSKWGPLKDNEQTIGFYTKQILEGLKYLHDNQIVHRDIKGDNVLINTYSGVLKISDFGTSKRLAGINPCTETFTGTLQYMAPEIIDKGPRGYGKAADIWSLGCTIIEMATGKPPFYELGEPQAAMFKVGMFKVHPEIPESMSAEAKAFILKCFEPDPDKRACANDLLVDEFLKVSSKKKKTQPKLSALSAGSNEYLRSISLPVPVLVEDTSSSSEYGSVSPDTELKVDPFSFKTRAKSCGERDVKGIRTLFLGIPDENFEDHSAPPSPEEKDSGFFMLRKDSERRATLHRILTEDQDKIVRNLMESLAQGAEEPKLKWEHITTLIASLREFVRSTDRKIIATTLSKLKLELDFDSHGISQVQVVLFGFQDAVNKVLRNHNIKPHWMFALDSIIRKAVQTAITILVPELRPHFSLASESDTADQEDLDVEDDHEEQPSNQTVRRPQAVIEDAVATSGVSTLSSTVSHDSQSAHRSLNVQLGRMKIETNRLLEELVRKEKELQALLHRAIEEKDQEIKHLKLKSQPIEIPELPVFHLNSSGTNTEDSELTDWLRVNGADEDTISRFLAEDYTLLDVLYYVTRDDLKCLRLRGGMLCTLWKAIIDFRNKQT", "experiment": "ASK1 kinase inhibition, HTRF KinEASE Assay System (TR-FRET)", "type": "biochemical", "details": "5 nM ASK1 kinase, 1 uM STK3 peptide substrate, 100 uM ATP, 3 hours", "protocol": "The ability (IC50) of compounds to inhibit ASK1 kinase activity was determined by HTRF® KinEASE™ Assay System.\nASK1 was purchased from Thermofisher (Catalogue # PV401.1), ATP was purchased from Sigma (Catalogue # A7699), HTRF® KinEASE™ Assay System was obtained from Cisbio (Bedford, Mass). ½ Area plate was purchased from Perkin Elmer (Catalogue # #6005560). HTRF® KinEASE™-STK is a generic method for measuring serine/threonine kinase activities using a time-resolved fluorescence resonance energy transfer (TR-FRET) immunoassay. The IC50 value for each compound was determined in the presence of compound (various concentration from 0 to 10 μM) and a fixed amount of ATP and peptide substrates. The test compound, luM STK3 peptide substrate, and 5 nM of ASK1 kinase are incubated with kinase reaction buffer containing 50 mM HEPES pH 7.5, 0.01% BRIJ-35, 10 mM MgCl2, and 1 mM EGTA for 30 minutes. 100 uM ATP is added to start kinase reaction and incubated for 3 hours. The STK3-antibody labeled with Eu^3+-Cryptate and 125 nM streptavidin-XL665 are mixed in a single addition with stop reagents provided by the Cisbio kit used to stop the kinase reaction. Fluorescence is detected using an Envision Multilabeled 2014 reader from PerkinElmer. The Fluorescence is measured at 615 nm (Cryptate) and 665 nm (XL665) and a ratio of 665 nm/615 nm is calculated for each well. The resulting TR-FRET is proportional to the phosphorylation level. Staurosporine was used as the positive control. IC50 was determined by XLfit 5.3.\nBy using above method, the inhibition of ASK1 was tested for the compound of formula (I). IC50 ranges are as follows: A<1 nM; 1 nM<B<10 nM; 10 nM<C<100 nM; 100 nM<D", "units": {"IC50": "nM"}, "values": [{"smiles": "Cc1cc(F)c(C(=O)Nc2cccc(-c3cnnn3C(C)C)n2)cc1-n1cnc(C2CC2)c1", "note": "[Example 4c, 5-(4-cyclopropyl-1H-imidazol-1-yl)-2-fluoro-N-(6-(1-isopropyl-1H-1,2,3-triazol-5-yl)pyridin-2-yl)-4-methylbenzamide]", "IC50": "10 to 100"}, {"smiles": "C[C@H](CO)n1nnnc1-c1cccc(NC(=O)c2cc(-n3cnc(C4CC4)c3)c(C(F)(F)F)cn2)n1", "note": "[Example 58a]", "IC50": "1 to 10"}, {"smiles": "Cc1cc(F)c(C(=O)Nc2cccc(-n3ccnc3C(C)C)n2)cc1-n1cnc(C2CC2)c1", "note": "[Example 3c, 5-(4-cyclopropyl-1H-imidazol-1-yl)-2-fluoro-N-(6-(2-isopropyl-1H-imidazol-1-yl)pyridin-2-yl)-4-methylbenzamide]", "IC50": "> 1000"}, {"smiles": "CC(C)n1nnnc1-c1cccc(NC(=O)c2cc(-n3cnc(C4CC4)c3)c(C(F)(F)F)cc2F)n1", "note": "[Example 37a]", "IC50": "1 to 10"}, {"smiles": "Cc1cnc(C(=O)Nc2cccc(-c3nnnn3C(C)C)n2)cc1-n1cnc(C(F)(F)F)c1", "note": "[Example 50a]", "IC50": "1 to 10"}, {"smiles": "Cc1cc(F)c(C(=O)Nc2cccc(-c3nnnn3C3CC(F)(F)C3)n2)cc1-n1cnc(C2CC2)c1", "note": "[Example 11a]", "IC50": "1 to 10"}, {"smiles": "Cc1cc(F)c(C(=O)Nc2cccc(-c3nnnn3C3CC3)n2)cc1-n1cnc(C2CC2)c1", "note": "[Example 2a, 5-(4-cyclopropyl-1H-imidazol-1-yl)-2-fluoro-N-(6-(1-cyclopropyl-1H-tetrazol-5-yl)pyridin-2-yl)-4-methylbenzamid]", "IC50": "1 to 10"}, {"smiles": "CC(C)n1nnnc1-c1cccc(NC(=O)c2cc(-n3cnc(C4CC4)c3)c(F)cn2)n1", "note": "[Example 39a]", "IC50": "1 to 10"}, {"smiles": "Cc1cc(F)c(C(=O)Nc2cccc(-c3nnnn3[C@@H](C)CF)n2)cc1-n1cnc(C2CC2)c1", "note": "[Example 15a]", "IC50": "1 to 10"}, {"smiles": "CC(C)n1nnnc1-c1cccc(NC(=O)c2cc(-n3cnc(C4CC4)c3)c(N3CCCCC3)cn2)n1", "note": "[Example 40a]", "IC50": "10 to 100"}, {"smiles": "Cc1cc(F)c(C(=O)Nc2cccc(-c3nnnn3[C@H](C)CO)n2)cc1-n1cnc(C2CC2)c1", "note": "[Example 7a, (R)-5-(4-cyclopropyl-1H-imidazol-1-yl)-2-fluoro-N-(6-(1-(1-hydroxypropan-2-yl)-1H-tetrazol-5-yl)pyridin-2-yl)-4-methylbenzamide]", "IC50": "1 to 10"}, {"smiles": "Cc1cc(F)c(C(=O)Nc2cccc(-c3nnnn3[C@H]3C[C@@H](O)C3)n2)cc1-n1cnc(C2CC2)c1", "note": "[Example 21a]", "IC50": "1 to 10"}, {"smiles": "Cc1cc(F)c(C(=O)Nc2cccc(-c3nnnn3C3CCCC3)n2)cc1-n1cnc(C2CC2)c1", "note": "[Example 8a]", "IC50": "1 to 10"}, {"smiles": "Cc1cnc(C(=O)Nc2cccc(-c3nnnn3C(C)C)n2)cc1-n1cnc(C(C)(C)C)c1", "note": "[Example 52a]", "IC50": "1 to 10"}]}]}
